Test results: patent US20110104159A1, “COMPOSITIONS AND METHODS FOR TREATING, CONTROLLING, REDUCING, AMELIORATING, OR PREVENTING ALLERGY” (priority 2006, published 2011)
Where “and” joins values, the source holds several entries; their conditions need not be identical. Equal values may be shown once.

Experiments:
[1] = system: rabbit paracentesis model; assay: Pupillary diameter measurement, rabbit paracentesis model; format: in vivo; details: individual eye; for Pupillary diameter T2: −5 min: 5 min before first paracentesis; for Pupillary diameter T3: +115 min: 5 min before second paracentesis; for Pupillary diameter Δ(T3 − T1): +115 min minus −180 min; for Pupillary diameter T1: −180 min: basal
Description: (§1) Each rabbit was placed in a restraint device and tagged with the alphanumeric code. The formulations were instilled (50 μl) into the conjunctival sac of both eyes 180, 120, 90 and 30 min before the first paracentesis; then 15, 30, 90 min after the first paracentesis. To perform the first paracentesis the animals were anaesthetized by intravenous injection of 5 mg/kg Zoletil® (Virbac; 2.5 mg/kg tiletamine HCl and 2.5 mg/kg zolazepam HCl) and one drop of local anesthetic (Novesina®, Novartis) was administered to the eye. Anterior chamber paracentesis was performed with a 26 G needle attached to a tuberculin syringe; the needle was introduced into the anterior chamber through the cornea, taking care not to damage the tissues. Two hours after the first paracentesis, the animals were sacrificed with 0.4 ml Tanax® (Intervet International B.V.) and the second paracentesis was performed. About 100 μl of aqueous humor were removed at the second paracentesis. Aqueous humor was immediately split in four aliquots and stored at −80° C. until analysis. Then both eyes were enucleated and the iris-ciliary body was carefully excised, placed in polypropylene tubes, and stored at −80° C. until analysis.
The pupillary diameter of both eyes was measured with a Castroviejo caliper 180 min and 5 min before the first paracentesis and 5 min before the second paracentesis.

[2] = system: rabbit paracentesis model; assay: Clinical evaluation by slit lamp (clinical score), rabbit paracentesis model; format: in vivo; set-up: key to Clinical Score −180 min / Clinical Score −5 min / Clinical Score +115 min: 0: normal; 1: discrete dilatation of iris and conjunctival vessels; 2: moderate dilatation of iris and conjunctival vessels; 3: intense iridal hyperemia with flare in the anterior chamber; 4: intense iridal hyperemia with flare in the anterior chamber and presence of fibrinous exudates; details: for Clinical Score −5 min: 5 min before first paracentesis; for Clinical Score −5 min / Clinical Score +115 min / Clinical Score −180 min: individual eye, scale 0-4; for Clinical Score +115 min: 5 min before second paracentesis; for Clinical Score −180 min: basal
PGE2 = assay: Prostaglandin E2 (PGE2) measurement in aqueous humor; format: in vivo, Rabbit; details: for PGE2 in aqueous humor at the second paracentesis, Mean: group mean; for PGE2 in aqueous humor at the second paracentesis: individual eye sample
Description: as §1
For the quantitative determination of PGE2 in the aqueous humor we used the PGE2 Immunoassay kit (R&D Systems; Cat. No. KGE004; Lot. No. 240010). Eleven microliters or 16 μl of aqueous humor were diluted to 110 μl or 160 μl with the calibrator diluent solution provided with the kit. One hundred microliters of samples and of standards were load into a 96-well plate and recorded in a plate layout. Samples were treated following the assay procedure described in the kit. A microplate reader (GDV, Italy; model DV 990 B/V6) set at 450 nm (wavelength correction at 540 nm) was used for making the calibration and analyzing the samples.

[3] = system: protein concentration in the aqueous humor; assay: Protein measurement in aqueous humor; format: in vivo, Rabbit; details: for Protein in aqueous humor at the second paracentesis, Mean: group mean; for Protein in aqueous humor at the second paracentesis: individual eye sample
Description: as §1
For protein concentration determination in the aqueous humor we used the Protein Quantification Kit (Fluka; Cat. No. 77371; Lot. No. 1303129). Five microliters of aqueous humor were diluted to 100 μl with water. Twenty microliters of samples and of standards were load into a 96-well plate and recorded in a plate layout. Samples were treated following the assay procedure described in the kit. A microplate reader (GDV, Italy; model DV 990 B/V6) set at 670 nm was used for making the calibration and analyzing the samples.

leukocytes (PMN) = assay: Leukocytes (PMN) measurement in aqueous humor; format: in vivo, Rabbit; details: for PMN in aqueous humor at the second paracentesis, Mean: group mean; for PMN in aqueous humor at the second paracentesis: individual eye sample
Description: as §1
For the determination of the number of leukocytes we used a haemocytometer (Improved Neubauer Chamber; Brigth-line, Hausser Scientific) and a Polyvar 2 microscope (Reichert-Jung).

MPO = assay: Myeloperoxidase (MPO) activity in iris-ciliary body; format: in vivo, Rabbit; details: for Mean MPO Unit/g (MPO activity in iris-ciliary body samples): group mean, after the second paracentesis; for MPO Unit/g (raw data of MPO activity in iris-ciliary body samples): individual eyes (DX/SX) of rabbits, samples collected after the second paracentesis
Description: 2.3.2.1 Phosphate Buffer (50 mM; pH=6)
3.9 g of NaH2PO4 2H2O were dissolved in a volumetric flask to 500 ml with water. The pH was adjusted to pH=6 with 3N NaOH.
0.5 g of hexa-decyl-trimethyl-ammonium bromide was dissolved in 100 ml phosphate buffer.
The solution was prepared freshly. Ten microliters of H2O2 (30 wt. %) were diluted to 1 ml with water (solution A). 7.5 mg o-dianisidine 2HCl were dissolved in 45 ml of phosphate buffer and 75 μl of solution A were added.
as §1
The activity of MPO was measured as previously described by Williams et al. The iris-ciliary bodies were carefully dried, weighed and immersed in 1 ml of hexa-decyl-trimethyl-ammonium bromide solution. Then, the samples were sonicated for 10 sec on ice by a ultrasound homogenizer (HD 2070, Bandelin electronic), freeze-thawed three times, sonicated for 10 sec and centrifuged at 14,000 g for 10 min to remove cellular debris. An aliquot of the supernatant (40-200 μl) was diluted to 3 ml with the o-dianisidine 2HCl/H2O2 solution. The change in absorbance at 460 nm was continuously monitored for 5 min by a spectrophotometer (UV/Vis Spectrometer Lambda EZ 201; Perkin Elmer). The slope of the line (Δ/min) was determined for each sample and used to calculate the number of units of MPO in the tissue as follows:
where ε=11.3 mM^−1. Values were expressed as units of MPO/g of tissue.

SMILES: C[C@@H]1C[C@H]2[C@@H]3CCC4=CC(=O)C=C[C@]4(C)[C@@]3(F)[C@@H](O)C[C@]2(C)[C@@]1(O)C(=O)CO [Dex, Dexamethasone, reference compound]
- Pupillary diameter T2: −5 min ([1]; 0.1% topical): 5.5 mm and 6.5 mm (3×) and 6.0 mm (2×) and 7.0 mm and 7.5 mm
- Pupillary diameter T3: +115 min ([1]; 0.1% topical): 5.5 mm (3×) and 6.0 mm (2×) and 4.5 mm and 5.0 mm and 6.5 mm
- Pupillary diameter Δ(T3 − T1) ([1]; 0.1% topical): −0.5 mm (3×) and −1.5 mm (2×) and 0.5 mm and 0.0 mm and −2.0 mm
- Pupillary diameter T1: −180 min ([1]; 0.1% topical): 6.0 mm and 7.0 mm (2×) and 5.5 mm (2×) and 6.5 mm (3×)
- Clinical Score −5 min ([2]; 0.1% topical): 0 (6×) and 1 (2×)
- Clinical Score +115 min ([2]; 0.1% topical): 1 (6×) and 3 (2×)
- Percentage of eyes with clinical score 1 ([2]; 0.1% topical, +115 min, 8 eyes): 75%
- Percentage of eyes with clinical score 3 ([2]; 0.1% topical, +115 min, 8 eyes): 25%
- Clinical Score −180 min ([2]; 0.1% topical): 0
- Percentage of eyes with clinical score 0 ([2]; 0.1% topical, −5 min, 8 eyes): 75%
- Percentage of eyes with clinical score 1 ([2]; 0.1% topical, −5 min, 8 eyes): 25%
- Percentage of eyes with clinical score 0 ([2]; 0.1% topical, −180 min, 8 eyes): 100%
- PGE2 in aqueous humor at the second paracentesis, Mean (PGE2; 0.1% topical): 2.263 ng/mL
- PGE2 in aqueous humor at the second paracentesis (PGE2; 0.1% topical): 2.51 ng/ml and 2.32 ng/ml (2×) and 2.10 ng/ml and 3.03 ng/ml and 1.30 ng/ml
- Protein in aqueous humor at the second paracentesis, Mean ([3]; 0.1% topical): 33.457 mg/mL
- Protein in aqueous humor at the second paracentesis ([3]; 0.1% topical): 31.31 mg/mL and 31.81 mg/mL and 35.95 mg/mL and 37.15 mg/mL and 32.12 mg/mL and 32.40 mg/mL
- PMN in aqueous humor at the second paracentesis, Mean (leukocytes (PMN); 0.1% topical): 30.000 number/μl
- PMN in aqueous humor at the second paracentesis (leukocytes (PMN); 0.1% topical): 20 number/μl (3×) and 50 number/μl and 40 number/μl and 30 number/μl
- Mean MPO Unit/g (MPO activity in iris-ciliary body samples) (MPO; 0.1% treatment): 0.618 Unit/g
- MPO Unit/g (raw data of MPO activity in iris-ciliary body samples) (MPO; 0.1% treatment): 0.71 Unit/g and 0.60 Unit/g and 1.32 Unit/g and 0.48 Unit/g (2×) and 0.39 Unit/g and 0.45 Unit/g and 0.51 Unit/g

SMILES: CC(C(=O)O)c1ccc(-c2ccccc2)c(F)c1 (centres unmarked) [F, flurbiprofen, reference compound]
- Pupillary diameter T2: −5 min ([1]; 0.03% topical): 6.0 mm (3×) and 6.5 mm (3×) and 7.0 mm and 5.5 mm
- Pupillary diameter T3: +115 min ([1]; 0.03% topical): 4.0 mm and 3.5 mm and 5.5 mm (2×) and 5.0 mm (2×) and 4.5 mm and 6.0 mm
- Pupillary diameter Δ(T3 − T1) ([1]; 0.03% topical): −1.0 mm (3×) and −1.5 mm (3×) and 0.0 mm (2×)
- Pupillary diameter T1: −180 min ([1]; 0.03% topical): 5.0 mm (2×) and 7.0 mm and 6.0 mm (4×) and 5.5 mm
- Clinical Score −5 min ([2]; 0.03% topical): 0
- Clinical Score +115 min ([2]; 0.03% topical): 2
- Percentage of eyes with clinical score 2 ([2]; 0.03% topical, +115 min, 8 eyes): 100%
- Clinical Score −180 min ([2]; 0.03% topical): 0
- Percentage of eyes with clinical score 0 ([2]; 0.03% topical, −5 min, 8 eyes): 100%
- Percentage of eyes with clinical score 0 ([2]; 0.03% topical, −180 min, 8 eyes): 100%
- PGE2 in aqueous humor at the second paracentesis, Mean (PGE2; 0.03% topical): 1.189 ng/mL
- PGE2 in aqueous humor at the second paracentesis (PGE2; 0.03% topical): 1.04 ng/ml and 0.75 ng/ml and 0.85 ng/ml and 1.11 ng/ml and 2.11 ng/ml (2×) and 0.93 ng/ml and 0.61 ng/ml
- PGE2 in aqueous humor, statistical comparison with CTR (PGE2; 0.03% topical, p<0.05): statistically significant versus CTR
- Protein in aqueous humor at the second paracentesis, Mean ([3]; 0.03% topical): 20.910 mg/mL
- Protein in aqueous humor at the second paracentesis ([3]; 0.03% topical): 20.78 mg/mL and 28.80 mg/mL and 23.41 mg/mL and 20.21 mg/mL and 17.53 mg/mL and 15.12 mg/mL and 20.52 mg/mL
- Protein in aqueous humor, statistical comparison with CTR ([3]; 0.03% topical, p<0.001): statistical significance
- PMN in aqueous humor at the second paracentesis, Mean (leukocytes (PMN); 0.03% topical): 30.000 number/μl
- PMN in aqueous humor at the second paracentesis (leukocytes (PMN); 0.03% topical): 50 number/μl and 40 number/μl (2×) and 20 number/μl (2×) and 10 number/μl and 30 number/μl
- MPO activity in iris-ciliary body, statistical comparison with CTR (MPO; 0.03% topical, p<0.01): statistical significance
- Mean MPO Unit/g (MPO activity in iris-ciliary body samples) (MPO; 0.03% treatment): 0.906 Unit/g
- MPO Unit/g (raw data of MPO activity in iris-ciliary body samples) (MPO; 0.03% treatment): 1.10 Unit/g and 1.70 Unit/g and 0.34 Unit/g and 0.75 Unit/g and 0.74 Unit/g and 0.63 Unit/g and 0.73 Unit/g and 1.27 Unit/g
